Measurements from US6489365B1, “Amidine derivatives, the preparation and use thereof as medicaments with Itb4 antagonistic effect” (Boehringer Ingelheim KG, priority 1992, dated 2002).

Columns and labels:
[1] = system: neutrophilic granulocytes; assay: LTB4-induced aggregation of neutrophilic granulocytes in the guinea-pig (in vitro); format: cell-based; details: Cavia porcellus, 2 min, inhibition 2 minutes after incubation with test substance in polydiol/DMSO, read-out: LTB4-induced neutroph. Aggr. EC50
Description: b) Aggregation of Neutrophilic Granulocytes in the Guinea-pig
Indicated by LTB4 in vitro (increase in light transmission in the aggregometer, recorded in mm; each experiment repeated twice): inhibition 2 minutes after incubation with test substance in polydiol/DMSO.

LTB4 receptors = target: T1, LTB4 receptors (Homo sapiens, UniProt Q15722); assay: U937 receptor binding test/LTB4; details: 3H-LTB4 (3 nM), vital U937 cells, incubation 2 hours at 0°C; read-out: Receptor binding U937-8 Ki
T1 construct: vital U937 cells (differentiated human monocytary cell line with naturally expressed LTB4 receptors); endogenous in cells; host or cells: U937 cells (differentiated, intact/vital)
T1 sequence (Q15722 whole entry): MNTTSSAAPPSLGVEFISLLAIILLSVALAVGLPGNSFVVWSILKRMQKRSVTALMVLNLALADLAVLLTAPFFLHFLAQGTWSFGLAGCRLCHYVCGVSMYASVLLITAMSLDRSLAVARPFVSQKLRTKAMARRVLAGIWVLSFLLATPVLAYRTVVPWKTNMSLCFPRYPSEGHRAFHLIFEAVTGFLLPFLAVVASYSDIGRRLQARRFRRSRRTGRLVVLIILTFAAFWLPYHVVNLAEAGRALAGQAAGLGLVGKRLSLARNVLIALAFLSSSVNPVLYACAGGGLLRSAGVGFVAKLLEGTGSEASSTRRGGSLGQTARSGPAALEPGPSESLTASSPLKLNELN
Description: a) U937—Receptor Binding Test/LTB4
The binding of ^3H-LTB4 (3 nM) to vital U937 cells (differentiated human monocytary cell line with naturally expressed LTB4 receptors) is inhibited, in dosage dependent manner, by an increasing concentration of the test substance (incubation 2 hours at 0°C.). After the unbound ^3H-LTB4 has been separated off by membrane filtration, the radioactivity of the bound LTB4 receptor/^3H-LTB4 complex is quantified by scintillation measurement. The affinity (inhibition constant Kj) was determined by repeated adaptation of a displacement curve to the measurements (program: “coupled mass equilibria” on Wang computer).

[2] = system: LTB4-induced neutrophilic influx in the mouse ear; assay: Leukotrien-B4-induced accumulation of neutrophiles in the mouse ear; format: in vivo; details: po, read-out: LTB4-induced neutroph. Accum. p.o. ED50
Description: c) Leukotrien-B4-indicated Accumulation of Neutrophiles in the Mouse Ear
Evaluation of the neutrophilic influx by photometric measurement (mOD/min) of the myeloperoxidase activity (Bradley et al.: J. Invest. Dermatol. 78, 206, 1982) in the skin of the ear. Increase 6 hours after topical treatment of the left ear with LTB4 (250 ng on each side) compared with the right ear (2×5 μl acetone as solvent).
Substance administered by oral route in 1% tylose 300, 30 minutes before the LTB4 stimularion.

## CCCc1c(OC)cccc1OCCCCOc1ccc(C(=N)N)cc1
[1]
  EC50: 1900 nM
LTB4 receptors
  Ki: 12 nM
[2]
  ED50: 0.8 mg/kg
